From ChEMBL document CHEMBL1130231, “Betidamino acid scan of the GnRH antagonist acyline” (J Med Chem, 1997)
Activity calls are given as the source filed them. The rule behind the calls is not given here.

Tests used:
Type in all cases: functional, organism-based
Rattus norvegicus [1] = assay: Ratio of ovulated rats to total number of rats determined in a anti-ovulatory assay by administering 0.5 microg of compound; 9/11
Rattus norvegicus [2] = assay: Ratio of ovulated rats to total number of rats determined in a anti-ovulatory assay by administering 1 microg of compound; 6/17
Rattus norvegicus [3] = assay: Ratio of ovulated rats to total number of rats determined in a anti-ovulatory assay by administering 250 microg of compound; 2/2
Rattus norvegicus [4] = assay: Ratio of ovulated rats to total number of rats determined in a anti-ovulatory assay by administering 1 ug of compound; 2/8
Rattus norvegicus [5] = assay: Ratio of ovulated rats to total number of rats determined in a anti-ovulatory assay by administering 2.5 microg of compound; 0/8
Rattus norvegicus [6] = assay: Ratio of ovulated rats to total number of rats determined in a anti-ovulatory assay by administering 0.5 microg of compound; 5/8
Rattus norvegicus [7] = assay: Ratio of ovulated rats to total number of rats determined in a anti-ovulatory assay by administering 1 microg of compound; 0/8
Rattus norvegicus [8] = assay: Ratio of ovulated rats to total number of rats determined in a anti-ovulatory assay by administering 250 microg of compound; 3/3
Rattus norvegicus [9] = assay: Ratio of ovulated rats to total number of rats determined in a anti-ovulatory assay by administering 1 microg of compound; 5/8
Rattus norvegicus [10] = assay: Ratio of ovulated rats to total number of rats determined in a anti-ovulatory assay by administering 1 microg of compound; 3/8
Rattus norvegicus [11] = assay: Ratio of ovulated rats to total number of rats determined in a anti-ovulatory assay by administering 1 microg of compound; 3/3
Rattus norvegicus [12] = assay: Ratio of ovulated rats to total number of rats determined in a anti-ovulatory assay by administering 2.5 microg of compound; 0/4
Rattus norvegicus [13] = assay: Ratio of ovulated rats to total number of rats determined in a anti-ovulatory assay by administering 1 ug of compound; 3/3
Rattus norvegicus [14] = assay: Ratio of ovulated rats to total number of rats determined in a anti-ovulatory assay by administering 2.5 microg of compound; 0/7
Rattus norvegicus [15] = assay: Ratio of ovulated rats to total number of rats determined in a anti-ovulatory assay by administering 5 microg of compound; 5/8
Rattus norvegicus [16] = assay: Ratio of ovulated rats to total number of rats determined in a anti-ovulatory assay by administering 10 microg of compound; 0/8
Rattus norvegicus [17] = assay: Ratio of ovulated rats to total number of rats determined in a anti-ovulatory assay by administering 2.5 microg of compound; 8/8
Rattus norvegicus [18] = assay: Ratio of ovulated rats to total number of rats determined in a anti-ovulatory assay by administering 10 microg of compound; 1/8
Rattus norvegicus [19] = assay: Ratio of ovulated rats to total number of rats determined in a anti-ovulatory assay by administering 10 microg of compound; 8/8
Rattus norvegicus [20] = assay: Ratio of ovulated rats to total number of rats determined in a anti-ovulatory assay by administering 25 microg of compound; 4/8
Rattus norvegicus [21] = assay: Ratio of ovulated rats to total number of rats determined in a anti-ovulatory assay by administering 2.5 microg of compound; 5/5
Rattus norvegicus [22] = assay: Ratio of ovulated rats to total number of rats determined in a anti-ovulatory assay by administering 5 microg of compound; 0/8
Rattus norvegicus [23] = assay: Ratio of ovulated rats to total number of rats determined in a anti-ovulatory assay by administering 1.0 microg of compound; 3/4
Rattus norvegicus [24] = assay: Ratio of ovulated rats to total number of rats determined in a anti-ovulatory assay by administering 5 microg of compound; 0/4
Rattus norvegicus [25] = assay: Ratio of ovulated rats to total number of rats determined in a anti-ovulatory assay by administering 2.5 microg of compound; 1/7
Rattus norvegicus [26] = assay: Ratio of ovulated rats to total number of rats determined in a anti-ovulatory assay by administering 10 microg of compound; 7/8
Rattus norvegicus [27] = assay: Ratio of ovulated rats to total number of rats determined in a anti-ovulatory assay by administering 25 microg of compound; 0/8
Rattus norvegicus [28] = assay: Ratio of ovulated rats to total number of rats determined in a anti-ovulatory assay by administering 5 microg of compound; 2/8

## CC(=O)Nc1ccc(C[C@H](NC(=O)[C@H](CO)NC(=O)[C@@H](Cc2cccnc2)NC(=O)[C@@H](Cc2ccc(Cl)cc2)NC(=O)[C@@H](Cc2ccc3ccccc3c2)NC(C)=O)C(=O)N[C@H](Cc2ccc(NC(C)=O)cc2)C(=O)N[C@@H](CC(C)C)C(=O)N[C@@H](CCCCNC(C)C)C(=O)N2CCC[C@@H]2C(=O)N[C@H](NC=O)C(N)=O)cc1 (single isomer, unassigned)
Rattus norvegicus [1]
  ov. rat/total: inactive
Rattus norvegicus [2]
  ov. rat/total: Partially active

## CC(=O)Nc1ccc(C[C@H](NC(=O)[C@H](CO)NC(=O)[C@@H](Cc2cccnc2)NC(=O)[C@@H](NC(=O)c2cnccn2)NC(=O)[C@@H](Cc2ccc3ccccc3c2)NC(C)=O)C(=O)N[C@H](Cc2ccc(NC(C)=O)cc2)C(=O)N[C@@H](CC(C)C)C(=O)N[C@@H](CCCCNC(C)C)C(=O)N2CCC[C@@H]2C(=O)N[C@H](C)C(N)=O)cc1
Rattus norvegicus [3]
  ov. rat/total: inactive

## CC(=O)Nc1ccc(C[C@H](NC(=O)[C@H](CO)NC(=O)[C@@H](Cc2cccnc2)NC(=O)[C@@H](Cc2ccc(Cl)cc2)NC(=O)[C@@H](NC(C)=O)N(C)C(=O)c2ccc3ccccc3c2)C(=O)N[C@H](Cc2ccc(NC(C)=O)cc2)C(=O)N[C@@H](CC(C)C)C(=O)N[C@@H](CCCCNC(C)C)C(=O)N2CCC[C@@H]2C(=O)N[C@H](C)C(N)=O)cc1 (single isomer, unassigned)
Rattus norvegicus [4]
  ov. rat/total: Partially active
Rattus norvegicus [5]
  ov. rat/total: Active

## CC(=O)Nc1ccc(C[C@H](NC(=O)[C@H](CO)NC(=O)[C@@H](Cc2cccnc2)NC(=O)[C@@H](Cc2ccc(Cl)cc2)NC(=O)[C@@H](Cc2ccc3ccccc3c2)NC(C)=O)C(=O)N[C@H](Cc2ccc(NC(C)=O)cc2)C(=O)N[C@@H](CC(C)C)C(=O)N[C@H](C(=O)N2CCC[C@@H]2C(=O)N[C@H](C)C(N)=O)N(C)C(=O)CCNC(C)C)cc1 (single isomer, unassigned)
Rattus norvegicus [5]
  ov. rat/total: Active
Rattus norvegicus [6]
  ov. rat/total: Partially active
Rattus norvegicus [7]
  ov. rat/total: Active

## CC(=O)Nc1ccc(C[C@H](NC(=O)[C@H](CO)NC(=O)[C@@H](Cc2cccnc2)NC(=O)[C@H](NC(=O)c2cnccn2)NC(=O)[C@@H](Cc2ccc3ccccc3c2)NC(C)=O)C(=O)N[C@H](Cc2ccc(NC(C)=O)cc2)C(=O)N[C@@H](CC(C)C)C(=O)N[C@@H](CCCCNC(C)C)C(=O)N2CCC[C@@H]2C(=O)N[C@H](C)C(N)=O)cc1 (single isomer, unassigned)
Rattus norvegicus [8]
  ov. rat/total: inactive

## CC(=O)Nc1ccc(C[C@@H](NC(=O)[C@H](NC(=O)[C@H](CO)NC(=O)[C@@H](Cc2cccnc2)NC(=O)[C@@H](Cc2ccc(Cl)cc2)NC(=O)[C@@H](Cc2ccc3ccccc3c2)NC(C)=O)N(C)C(=O)c2ccc(NC(C)=O)cc2)C(=O)N[C@@H](CC(C)C)C(=O)N[C@@H](CCCCNC(C)C)C(=O)N2CCC[C@@H]2C(=O)N[C@H](C)C(N)=O)cc1
Rattus norvegicus [9]
  ov. rat/total: Partially active
Rattus norvegicus [5]
  ov. rat/total: Active

## CC(=O)Nc1ccc(C[C@H](NC(=O)[C@H](CO)NC(=O)[C@@H](Cc2cccnc2)NC(=O)[C@@H](Cc2ccc(Cl)cc2)NC(=O)[C@@H](Cc2ccc3ccccc3c2)NC(C)=O)C(=O)N[C@H](Cc2ccc(NC(C)=O)cc2)C(=O)N[C@@H](CC(C)C)C(=O)N[C@@H](CCCCNC(C)C)C(=O)N2CCC[C@@H]2C(=O)N[C@H](N)C(N)=O)cc1
Rattus norvegicus [10]
  ov. rat/total: Partially active
Rattus norvegicus [5]
  ov. rat/total: Active

## CC(=O)Nc1ccc(C[C@H](NC(=O)[C@H](CO)NC(=O)[C@@H](Cc2cccnc2)NC(=O)[C@@H](Cc2ccc(Cl)cc2)NC(=O)[C@@H](Cc2ccc3ccccc3c2)NC(C)=O)C(=O)N[C@H](Cc2ccc(NC(C)=O)cc2)C(=O)N[C@@H](CC(C)C)C(=O)N[C@@H](CCCCNC(C)C)C(=O)N2CCC[C@@H]2C(=O)N[C@@H](NC=O)C(N)=O)cc1 (single isomer, unassigned)
Rattus norvegicus [11]
  ov. rat/total: inactive
Rattus norvegicus [12]
  ov. rat/total: Active

## CC(=O)Nc1ccc(C[C@H](NC(=O)[C@H](CO)NC(=O)[C@H](NC(=O)c2cccnc2)NC(=O)[C@@H](Cc2ccc(Cl)cc2)NC(=O)[C@@H](Cc2ccc3ccccc3c2)NC(C)=O)C(=O)N[C@H](Cc2ccc(NC(C)=O)cc2)C(=O)N[C@@H](CC(C)C)C(=O)N[C@@H](CCCCNC(C)C)C(=O)N2CCC[C@@H]2C(=O)N[C@H](C)C(N)=O)cc1
Rattus norvegicus [13]
  ov. rat/total: inactive
Rattus norvegicus [14]
  ov. rat/total: Active

## CC(=O)Nc1ccc(C[C@H](NC(=O)[C@H](CO)NC(=O)[C@@H](Cc2cccnc2)NC(=O)[C@@H](Cc2ccc(Cl)cc2)NC(=O)[C@@H](Cc2ccc3ccccc3c2)NC(C)=O)C(=O)N[C@H](Cc2ccc(NC(C)=O)cc2)C(=O)N[C@@H](NC(C)=O)C(=O)N[C@@H](CCCCNC(C)C)C(=O)N2CCC[C@@H]2C(=O)N[C@H](C)C(N)=O)cc1
Rattus norvegicus [15]
  ov. rat/total: Partially active
Rattus norvegicus [16]
  ov. rat/total: Active

## CC(=O)Nc1ccc(C[C@H](NC(=O)[C@H](NC(=O)[C@@H](Cc2cccnc2)NC(=O)[C@@H](Cc2ccc(Cl)cc2)NC(=O)[C@@H](Cc2ccc3ccccc3c2)NC(C)=O)N(C)C=O)C(=O)N[C@H](Cc2ccc(NC(C)=O)cc2)C(=O)N[C@@H](CC(C)C)C(=O)N[C@@H](CCCCNC(C)C)C(=O)N2CCC[C@@H]2C(=O)N[C@H](C)C(N)=O)cc1 (single isomer, unassigned)
Rattus norvegicus [17]
  ov. rat/total: inactive
Rattus norvegicus [18]
  ov. rat/total: Active

## CC(=O)Nc1ccc(C[C@@H](NC(=O)[C@H](NC(=O)c2ccc(O)cc2)NC(=O)[C@H](CO)NC(=O)[C@@H](Cc2cccnc2)NC(=O)[C@@H](Cc2ccc(Cl)cc2)NC(=O)[C@@H](Cc2ccc3ccccc3c2)NC(C)=O)C(=O)N[C@@H](CC(C)C)C(=O)N[C@@H](CCCCNC(C)C)C(=O)N2CCC[C@@H]2C(=O)N[C@H](C)C(N)=O)cc1
Rattus norvegicus [9]
  ov. rat/total: Partially active
Rattus norvegicus [5]
  ov. rat/total: Active

## CC(=O)Nc1ccc(C[C@H](NC(=O)[C@H](CO)NC(=O)[C@@H](Cc2cccnc2)NC(=O)[C@@H](Cc2ccc(Cl)cc2)NC(=O)[C@@H](Cc2ccc3ccccc3c2)NC(C)=O)C(=O)N[C@H](C(=O)N[C@@H](CC(C)C)C(=O)N[C@@H](CCCCNC(C)C)C(=O)N2CCC[C@@H]2C(=O)N[C@H](C)C(N)=O)N(C)C(=O)c2ccc(NC(C)=O)cc2)cc1 (mixture of isomers)
Rattus norvegicus [19]
  ov. rat/total: inactive
Rattus norvegicus [20]
  ov. rat/total: Partially active

## CC(=O)Nc1ccc(C[C@H](NC(=O)[C@H](CO)NC(=O)[C@@H](Cc2cccnc2)NC(=O)[C@@H](Cc2ccc(Cl)cc2)NC(=O)[C@H](NC(C)=O)NC(=O)c2ccc3ccccc3c2)C(=O)N[C@H](Cc2ccc(NC(C)=O)cc2)C(=O)N[C@@H](CC(C)C)C(=O)N[C@@H](CCCCNC(C)C)C(=O)N2CCC[C@@H]2C(=O)N[C@H](C)C(N)=O)cc1
Rattus norvegicus [21]
  ov. rat/total: inactive
Rattus norvegicus [22]
  ov. rat/total: Active

## CC(=O)Nc1ccc(C[C@H](NC(=O)[C@H](CO)NC(=O)[C@@H](Cc2cccnc2)NC(=O)[C@@H](Cc2ccc(Cl)cc2)NC(=O)[C@@H](Cc2ccc3ccccc3c2)NC(C)=O)C(=O)N[C@H](Cc2ccc(NC(C)=O)cc2)C(=O)N[C@@H](CC(C)C)C(=O)NC(NC(=O)CN=C(N)N)C(=O)N2CCC[C@@H]2C(=O)N[C@H](C)C(N)=O)cc1 (stereo partly drawn)
Rattus norvegicus [23]
  ov. rat/total: inactive
Rattus norvegicus [24]
  ov. rat/total: Active
Rattus norvegicus [25]
  ov. rat/total: Active

## CC(=O)Nc1ccc(C[C@H](NC(=O)[C@H](CO)NC(=O)[C@@H](Cc2cccnc2)NC(=O)[C@@H](Cc2ccc(Cl)cc2)NC(=O)[C@H](NC(C)=O)N(C)C(=O)c2ccc3ccccc3c2)C(=O)N[C@H](Cc2ccc(NC(C)=O)cc2)C(=O)N[C@@H](CC(C)C)C(=O)N[C@@H](CCCCNC(C)C)C(=O)N2CCC[C@@H]2C(=O)N[C@H](C)C(N)=O)cc1
Rattus norvegicus [26]
  ov. rat/total: inactive
Rattus norvegicus [27]
  ov. rat/total: Active

## CC(=O)Nc1ccc(C[C@H](NC(=O)[C@@H](NC(=O)CO)NC(=O)[C@@H](Cc2cccnc2)NC(=O)[C@@H](Cc2ccc(Cl)cc2)NC(=O)[C@@H](Cc2ccc3ccccc3c2)NC(C)=O)C(=O)N[C@H](Cc2ccc(NC(C)=O)cc2)C(=O)N[C@@H](CC(C)C)C(=O)N[C@@H](CCCCNC(C)C)C(=O)N2CCC[C@@H]2C(=O)N[C@H](C)C(N)=O)cc1 (single isomer, unassigned)
Rattus norvegicus [28]
  ov. rat/total: Partially active
